Measured values from US10064845B2, “Compositions and methods of treating muscular dystrophy with thromboxane-A2 receptor antagonists” (Cumberland Pharmaceuticals, Inc., priority 2016, dated 2018).

Legend:
[1] = system: pressure-overload model of pulmonary arterial hypertension; conditions: cited from earlier work
[2] = system: δ-sarcoglycan knockout (dSG KO) mouse model of limb-girdle muscular dystrophy; experiment: plasma cardiac troponin I in dSG KO mice; assay type: in vivo; conditions: given in drinking water
Excerpt: (§1) Applicants explored the possibility that TPr activity may contribute to pathology in muscular dystrophy. In preliminary studies, the effects of blocking TPr activity in a δ-sarcoglycan knockout (dSG KO) mouse model of limb-girdle muscular dystrophy (LGMD). […] The inhibition of LV epicardial fibrosis may have particular applicability to DMD patients, where cardiac fibrosis typically begins in the sub-epicardium of the left ventricular (LV) free wall and progresses to include the remaining LV free wall and septum. […] Therefore, it is believed that TPr activity contributes to pathology in muscular dystrophy.
Example 4 utilized West/Carrier Muscular Dystrophy Animal Models (Delta-sarcoglycan knock-out mice (sgcd−/−)). Mice devoid of DSG develop cardiomyopathy and MD with signs of progressive disease such as necrosis, muscular regeneration, inflammation and fibrosis within the first 3 months of life. Mice that are homozygous for the targeted mutation are viable, fertile and normal in size. No gene product (protein) is immunodetected in skeletal muscle microsomal preparations. […] Myofiber membranes have permeability defects as assessed by Evans blue dye uptake into myofiber cytoplasm. […]
The term “cTNI” means plasma cardiac troponin I. The term “KO” means knockout. […] Plasma cardiac troponin I (cTNI) is highly specific and sensitive for myocardial tissue and can be measured rapidly. […]

[3] = system: δ-sarcoglycan knockout (dSG KO) mouse model of limb-girdle muscular dystrophy; experiment: cardiac function (Echo, cardiac output) in dSG KO mice; assay type: in vivo
Excerpt: as §1
(§2) Example 4 utilized West/Carrier Muscular Dystrophy Animal Models (Delta-sarcoglycan knock-out mice (sgcd−/−)). Mice devoid of DSG develop cardiomyopathy and MD with signs of progressive disease such as necrosis, muscular regeneration, inflammation and fibrosis within the first 3 months of life. Mice that are homozygous for the targeted mutation are viable, fertile and normal in size. No gene product (protein) is immunodetected in skeletal muscle microsomal preparations. At 8 weeks of age there is an onset of sudden mortality, with a 50% survival rate at 28 weeks. Elevated creatine kinase serum levels are indicative of striated muscle degeneration. […] At 12 weeks of age, cardiac muscle tissue also begins to show degeneration, inflammatory infiltration and perivascular fibrosis. Myofiber membranes have permeability defects as assessed by Evans blue dye uptake into myofiber cytoplasm. […] A major function of dystrophin is to strengthen the sarcolemma by cross-linking the ECM with the cytoskeleton. […] They work to connect sarcolemma to cytoplasmic actin cytoskeleton. Dysfunction produces membrane instability, elevated [Ca2+]I and disrupted NO signaling. γ- and δ-SG form a core necessary for delivery/retention of other SG to the membrane.
(§3) While the DSG KO (sgcd−/−) mice lack functional delta-sarcoglycan, the MD phenotype is milder than the human disease. […]

dSG KO mice [4] = experiment: intestinal histology (H&E) in dSG KO mice; assay type: in vivo, mouse; conditions: dSG KO mice vs vehicle-treated dSG KO mice; FIG. 13
Excerpt: as §2, with “membrane. […]” for “membrane.”

[5] = system: utrophin/dystrophin double knockout (DKO) mice; experiment: wire hang in DKO males; assay type: in vivo, mouse; conditions: DKO males at 10 weeks; vs vehicle; FIG. 15
Excerpt: While the DSG KO (sgcd−/−) mice lack functional delta-sarcoglycan, the MD phenotype is milder than the human disease. Since utrophin, a dystrophin-related protein, is able to compensate for the loss of dystrophin, loss of utrophin and dystrophin (DKO) results in a more severe phenotype. […] The mice are difficult to generate and care for, and often die prematurely. Ifetroban treatment was started at 3 weeks upon weaning.
FIG. 1 are photos of a vehicle-treated compared with an ifetroban-treated DKO mouse. FIG. 1A is a photograph of a vehicle-treated DKO Mouse at 10 weeks. FIG. 1B is a photograph of an ifetroban-treated DKO mouse at 10 weeks. The ability to wrap the tail around the wire is dependent on muscle function. A reason the DKO mice are really hard to evaluate in the wire hang is that they have such severe scoliosis that their hind paws are very close to their front paws, so raising their hind paws to get a 4-limbed grip is not difficult despite their affliction.
FIG. 15 are graphs showing wire hang in DKO males at 10 weeks (ifetroban-treated (“ife”) versus vehicle).

dSG KO mice [6] = experiment: survival of dSG KO mice; assay type: in vivo, mouse
Excerpt: Applicants explored the possibility that TPr activity may contribute to pathology in muscular dystrophy. In preliminary studies, the effects of blocking TPr activity in a δ-sarcoglycan knockout (dSG KO) mouse model of limb-girdle muscular dystrophy (LGMD). […] The inhibition of LV epicardial fibrosis may have particular applicability to DMD patients, where cardiac fibrosis typically begins in the sub-epicardium of the left ventricular (LV) free wall and progresses to include the remaining LV free wall and septum. […] Therefore, it is believed that TPr activity contributes to pathology in muscular dystrophy. Example 4 utilized West/Carrier Muscular Dystrophy Animal Models (Delta-sarcoglycan knock-out mice (sgcd−/−)). Mice devoid of DSG develop cardiomyopathy and MD with signs of progressive disease such as necrosis, muscular regeneration, inflammation and fibrosis within the first 3 months of life. Mice that are homozygous for the targeted mutation are viable, fertile and normal in size. No gene product (protein) is immunodetected in skeletal muscle microsomal preparations. At 8 weeks of age there is an onset of sudden mortality, with a 50% survival rate at 28 weeks. Elevated creatine kinase serum levels are indicative of striated muscle degeneration. […] Myofiber membranes have permeability defects as assessed by Evans blue dye uptake into myofiber cytoplasm. […]

[7] = system: utrophin/dystrophin double knockout (DKO) mice, a model of severe DMD; experiment: survival of utrophin/dystrophin DKO mice; assay type: in vivo, mouse
Excerpt: as §1
dSG KO mice, chosen for their cardiac phenotype, are a model of LGMD, but DMD which occurs in approximately 1:3500 male births (1), is far more common a disease than LGMD. The mdx mouse model of DMD poorly replicates the shortened life expectancy, cardiac fibrosis, and cardiomyopathy seen in DMD patients. The utrophin/dystrophin DKO model had significant mortality by 10 weeks, although treatment with the TPr antagonist ifetroban led to 100% survival to this predetermined timepoint. Although TPr antagonism may prevent spontaneous death in DMD, due to severe kyphosis and frailty we were not able to obtain much useful cardiac data with the DKO model of DMD.
as §3

dSG KO mice [8] = experiment: wire hang in dSG mice; assay type: in vivo, mouse
Excerpt: as §2
Veh and ife-treated groups were NS tested against each other. N in parentheses. “ife”=ifetroban.
FIG. 8 depicts wire hang time for mice tested.

[9] = system: δ-sarcoglycan knockout (dSG KO) mouse model of limb-girdle muscular dystrophy; experiment: cardiac histology (Masson's trichrome) in dSG KO mice; assay type: in vivo
Excerpt: as §1, §2
FIGS. 9A (dSGKO-vehicle) and 9B (DsGKO-ifetroban) show cardiac histology in dSG KO males. Less fibrosis seen in ifetroban treated RV. Shown is Masson's trichrome at 4× for gross histology. […]

dSG KO mice [10] = experiment: spontaneous exercise (voluntary wheel running) in dSG KO mice; assay type: in vivo, mouse; conditions: 6 month old dSG KO males; wheel access for 10 days after 4.5M of treatment; FIG. 5
Excerpt: as §2
FIG. 5 provides spontaneous exercise date for 6 month old males. […]

[11] = dSG KO mice, given in drinking water, preliminary studies

Structure (SMILES)	cardiac function [1]	right ventricular fibrosis [1]	plasma cardiac troponin I levels [2]	3 month Echo data: cardiac dysfunction ([3]; dSG KO males at 3 months, FIG. 3)	decline in cardiac function [3, 11]	cardiac output ([3]; male dSG KO mice at 3 months, FIG. 4, compared to vehicle)	fibrosis in intestinal tissue (dSG KO mice [4])	average wire hang time [5]	survival (dSG KO mice [6])	10-week survival ([7]; DKO mice, treatment started at 3 weeks upon weaning) [%]	survival time ([7]; all DKO mice, FIG. 17) [days]	wire hang time (dSG KO mice [8]; dSG mice at 6 months, FIG. 6)	wire hang time (longest time) (dSG KO mice [8]; male mice at 6 months, FIG. 8)	cardiac histology: fibrosis in RV ([9]; dSG KO males, Masson's trichrome 4× (FIG. 9) or 2× (FIG. 10))	cardiac histology: fibrosis in left and right ventricle ([9]; dSG KO males, Masson's trichrome, 10×, FIG. 11)	formation of cardiac fibrosis [9, 11]	spontaneous exercise (voluntary wheel running): skeletal function deficit (dSG KO mice [10])
CC(=O)Oc1ccccc1C(=O)O [aspirin]	no effect	no effect															
CCCCCNC(=O)c1coc([C@H]2[C@@H](Cc3ccccc3CCC(=O)O)[C@@H]3CC[C@H]2O3)n1 [ifetroban, [1S-(1α,2α,3α,4α)]-2-[[3-[4-[(Pentylamino)carbonyl]-2-oxazolyl]-7-oxabicyclo[2.2.1]hept-2-yl]methyl]-benzenepropanoic acid]	improves cardiac function	dramatically decreases right ventricular fibrosis	normalizing elevated plasma cardiac troponin I levels	prevents cardiac dysfunction	prevents a decline in cardiac function	improved similar to WT levels	less fibrosis	significantly longer average hang times	significantly improved survival	100	> 70	improved wire hang time	difficult to measure any difference	less fibrosis	Less fibrosis	limits the formation of cardiac fibrosis	seen to a less extent
O=C(O)/C=C/c1ccc(Cn2ccnc2)cc1 [ozagrel]	no effect	no effect															
